Common to all, as to test: NCI anticancer screen, dose series, 48 h
Test [1] has as its system HCC-2998 colon.
For test [2], the system named is HCT-15 colon.
In test [3] the test system is HOP-62 NSCLC.
In test [4] the test system is MCF7 breast.
The test system of test [5] is MOLT-4 leukemia.
Test [6] has as its system NCI-H226 lung.
Test [7] concerns NCI/ADR-RES ovarian.
The test system of test [8] is SF-268 CNS.
Test [9] concerns SF-295 CNS.
Test [10] deals with TK-10 renal.

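1) Cells in 96-well plates. 2) Compound, 48 h, 5 concentrations. 3) Linear interpolation between surrounding doses. 4) Unreached endpoint = highest concentration. TGI denotes the concentration required for complete inhibition of growth.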 Some results are limits rather than exact numbers.

Consider `COc1c2occc2c(OC)c2c(=O)c(S(=O)(=O)NC(=O)Nc3ccc(Cl)cc3)coc12`, for which the TGI in [1], in test [2], in test [3], in test [4], in [5] and in [6] was > 10 µM each time. Further, the TGI in [7], in [8], in test [9] and in [10] was > 10 µM in each case.
As for `O=C(NCC1Nc2ccncc2S(=O)(=O)N1)c1ccc(Br)cc1` (stereo not given), the TGI in [1], in [2], in test [3], in [4], in test [5] and in test [6] was > 100 µM in each case. Further, the TGI in test [7] was > 100 µM; in test [8], 81.2 µM; in test [9], > 100 µM; in test [10], > 100 µM.
As for `COC(=O)c1c(OC(C)=O)ccc2c1c1c(OC(C)=O)c3ccccc3c(OC(C)=O)c1n2Cc1cc(OC)cc(OC)c1`, the TGI is 10.9 µM in test [1]; > 100 µM in test [2]; > 100 µM in [3]; > 100 µM in test [4]; > 100 µM in [5]; > 100 µM in [6]. Besides, the TGI in test [7], in test [8], in test [9] and in [10] was > 100 µM in each case.
For `O=C(CCc1cccc(O)c1)NCCc1cccc(O)c1`, the TGI in test [1], in test [2], in test [3], in test [4], in test [5] and in test [6] was > 100 µM throughout. The TGI in test [7], in [8], in test [9] and in test [10] was > 100 µM in each case.
With `Brc1ccc2c(-c3nc(-c4c[nH]c5ccccc45)cs3)c[nH]c2c1`, the TGI in [1] is > 100 µM; in [2], > 100 µM; in test [3], > 100 µM; in test [4], > 100 µM; in test [5], > 87 µM; in [6], > 100 µM. Moreover, the TGI in test [7] was > 100 µM; in test [8], > 100 µM; in [9], > 100 µM; in test [10], 45.8 µM.
On to `O=C1NN=C(c2ccc(Cl)cc2)CC1C1C(=O)N(c2ccccc2)N=C1c1ccccc1` (stereo not given), for which the TGI in test [1] was 91.7 µM; in test [2] it was > 100 µM; in [3], > 100 µM; in test [4], > 100 µM; in test [5], > 100 µM; in test [6], 91.8 µM. Besides, the TGI in test [7], in test [8], in [9] and in [10] was > 100 µM each time.
Take `CC/C(Cl)=N\OC(=O)Nc1ccc(OC)cc1`: the TGI in test [1] was 15.7 µM; in test [2], 3.12 µM; in [3], 30.3 µM; in [4], 12.2 µM; in test [5] it was 5.59 µM; in test [6] it was 28.3 µM. The TGI turned out to be 15 µM in test [7], 32.1 µM in test [8], 31.1 µM in test [9] and 18.2 µM in test [10].
With `O=C(O)Cc1ccc(Oc2nc3ccccc3nc2-c2cccs2)cc1`, the TGI in [1], in test [2], in test [3], in [4], in [5] and in [6] was > 100 µM throughout. Also, the TGI in [7], in test [8], in test [9] and in test [10] was > 100 µM throughout.
On to `[O-][n+]1onc2c3nn(-c4ccccc4)nc3ccc21`, for which the TGI was 44.9 µM in [1]; > 100 µM in [2]; > 100 µM in [3]; > 100 µM in test [4]; > 100 µM in test [5]; > 100 µM in test [6]. In addition, the TGI is > 100 µM in test [7], > 100 µM in test [8], > 100 µM in test [9] and > 88.7 µM in test [10].
Turning to `O=[N+]([O-])c1ccc2c(c1)nc(Cc1ccccc1)n2C[C@@H]1CCCN2CCCCC12` (stereo not given in full), the TGI in [1] is 33.2 µM; in test [2] it was > 100 µM; in test [3], > 100 µM; in test [4], > 100 µM; in test [5] it was 47.6 µM; in [6], > 100 µM. Besides, the TGI in [7] was > 100 µM; in test [8], > 100 µM; in test [9], 37.9 µM; in test [10], > 100 µM.
With `O=S(=O)(c1cc(Cl)ccc1Cl)N1CCN(S(=O)(=O)c2cc(Cl)ccc2Cl)CC1`, the TGI in test [1], in test [2], in test [3], in [4], in test [5] and in [6] was > 100 µM throughout. Further, the TGI in test [7], in test [8], in test [9] and in test [10] was > 100 µM each time.

These data come from PubChem BioAssay (NCI).
